Source: patent US7670767B1, “Genetic alterations associated with cancer” (The Regents of the University of California, priority 1997, dated 2010)

How the values were obtained:
OVCAR3 cells [1] = experiment: MTT viability assay; type: cell-based, human
Experimental: NOE, MC[MUT] or OVCAR3 (as indicated) were starved of serum overnight and then cultured in 0.5% serum. […] Cell proliferation and viability assay was assessed before and after treatment with the PI3-kinase inhibitor LY294002 as follows. Cells were cultured in 96-well plates (15×10^3 cells/well) and serum starved overnight prior to the addition of LY294002 (Calbiochem) at various concentrations. […] For viability assay, cells were incubated with LY294002 as described above for 96 hours. MTT (25 ml of 5 ml/ml in PBS) was added to each well and incubated at 37° C. for 2 hours. Cells were then lysed by addition of 100 ml lysis buffer (20% SDS in 50% N,N-dimethylformamide, pH4.7). The cultures were set at 37° C. overnight and measured by microplate reader at 570 nm wavelength. Percent Maximum was converted from OD570 as indicated above.

OVCAR3 cells [2] = experiment: programmed cell death, fluorescence based measurement of free DNA ends (Apo direct); design: species or system human
Experimental: This decrease in viability (FIG. 5B) was associated with an increased rate of programmed cell death at 24 (24% vs 51%) and 48 hour (22% vs 52%) as assessed by a fluorescence based measurement of free DNA ends Apo direct, Phoenix Flow Systems.

O=c1cc(N2CCOCC2)oc2c(-c3ccccc3)cccc12 [LY294002]
times more sensitive to the effect of LY294002 (OVCAR3 vs NOE or MCF10F) (OVCAR3 cells [1]; in serum free media): 100 times
times more sensitive to the effect of LY294002 (OVCAR3 vs NOE or MCF10F) (OVCAR3 cells [1]; in the presence of 0.5% FCS): 10 times
rate of programmed cell death (OVCAR3 cells [2]; 24 hour, printed as 24% vs 51%): 51%
rate of programmed cell death (OVCAR3 cells [2]; 48 hour, printed as 22% vs 52%): 52%
